The target of experiment [1] is T1, human A3ARs (Homo sapiens, UniProt P0DMS8).
T1 construct: expressed in transfected cells; host or cells: CHO (Chinese hamster ovary) cells; membrane preparation
T1 sequence (P0DMS8 1-318): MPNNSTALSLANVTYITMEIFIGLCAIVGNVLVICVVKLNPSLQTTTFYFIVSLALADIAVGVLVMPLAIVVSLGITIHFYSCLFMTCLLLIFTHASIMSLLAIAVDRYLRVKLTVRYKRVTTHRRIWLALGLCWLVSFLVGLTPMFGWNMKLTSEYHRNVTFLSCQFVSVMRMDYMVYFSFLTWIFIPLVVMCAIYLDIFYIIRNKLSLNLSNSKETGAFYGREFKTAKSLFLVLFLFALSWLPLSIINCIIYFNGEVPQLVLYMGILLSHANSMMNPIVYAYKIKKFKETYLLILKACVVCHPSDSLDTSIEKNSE
Put plainly: Dissociation kinetics of [125I]I-AB-MECA from human A3ARs (allosteric effect). The conditions noted are these: 10 μM test compound; binding after 1.5 or 2 hours of dissociation, control without modulator set at 100%; brackets = result of each of two assays; read-out: hA3ARAg Dissociation at 10 μM. How it is done:
(§1) CHO (Chinese hamster ovary) cells expressing the recombinant human A3 receptors were cultured in DMEM and F12 (1:1) supplemented with 10% fetal bovine serum, 100 units/ml penicillin, 100 μg/ml streptomycin and 2 μmol/ml glutamine. Cells were harvested by trypsinization. After homogenization and suspension, cells were centrifuged at 500 g for 10 min, and the pellet was re-suspended in 50 mM Tris.HCl buffer (pH 7.4) containing 10 mM MgCl2. The suspension was homogenized with an electric homogenizer for 10 sec, and was then re-centrifuged at 20,000 g for […] at 4° C. The resultant pellets were resuspended in buffer in the presence of 3 Units/mL adenosine deaminase, and the suspension was stored at −80° C. until the binding experiments. The protein concentration was measured using the Bradford assay.
The dissociation of [^125I]I-AB-MECA was measured as follows. Membranes (20 μg) were pre-incubated at 25° C. with 0.5 nM [^125I]I-AB-MECA, in a total volume of 100 μl of Tris-HCl buffer (50 mM, pH 8.0) containing 10 mM MgCl2, and 1 mM EDTA for 60 min. The dissociation was then initiated by the addition of 3 μM Cl-IB-MECA with or without allosteric modulators. The time course of dissociation of total binding was measured by rapid filtration at appropriate time intervals. Nonspecific binding was measured after 60-min incubation in the presence of 3 μM Cl-IB-MECA. Further assay was as described above.

Experiment [2] addresses T1, human A3ARs. Put plainly: Competitive binding assay to the human A3 AR with [125I]I-AB-MECA. The conditions noted are these: 1 h, 10 μM test compound; [125I]I-AB-MECA radioligand; CHO cell membranes expressing human A3AR; brackets = individual assays; read-out: % displacement at 10 μM (hA3AR). The protocol: as §1
Each tube in the competitive binding assay contained 100 μl membrane suspension (20 μg protein), 50 μl [^125I]I-AB-MECA (0.5 nM), and 50 μl of increasing concentrations of the test modulators in Tris.HCl buffer (50 mM, pH 8.0) containing 10 mM MgCl2, 1 mM EDTA. Nonspecific binding was determined using 10 μM of 5′-N-ethylcarboxamidoadenosine in the buffer. The mixtures were incubated at 25° C. for 60 min. Binding reactions were terminated by filtration through Whatman GF/B filters under reduced pressure using a MT-24 cell harvester (Brandell, Gaithersburgh, Md., USA). Filters were washed three times with 9 mL ice-cold buffer. Radioactivity was determined in a Beckman 5500B γ-counter.
Binding parameters were calculated using Prism 5.0 software (GraphPAD, San Diego, Calif., USA). IC50 values obtained from competition curves were converted to Ki values using the Cheng-Prusoff equation. Data were expressed as mean±standard error.

SMILES strings stand for the structures. Bounds are passed on as bounds.

Turning to `O=C(Nc1cc(Nc2ccccc2)nc2ccccc12)C1CCCC1` [Compound 16, N-(2-anilinoquinolin-4-yl)cyclopentanecarboxamide], the activity at 10 µM at human A3ARs [1] came to 145%. The inhibition at 10 µM at human A3ARs [2] amounted to 61%.
On to `O=C(Nc1cc(Nc2ccc(Cl)c(Cl)c2)nc2ccccc12)C1CCCC1` [Compound 17, N-{2-[(3,4-dichlorophenyl)amino]quinolin-4-yl}cyclopentanecarboxamide], for which the activity at 10 µM at human A3ARs [1] stood at 169%. Further, the inhibition at 10 µM on human A3ARs [2] is 50%.
`O=C(Nc1cc(NCc2ccccc2)nc2ccccc12)C1CCCC1` [Compound 18, N-[2-(benzylamino)quinolin-4-yl]cyclopentanecarboxamide]: on human A3ARs [1], the activity at 10 µM is 107%. The inhibition at 10 µM at human A3ARs [2] stood at 28%.
On to `Cc1ccc(Nc2cc(NC(=O)C3CCCC3)c3ccccc3n2)cc1` [Compound 19, N-{2-[(4-methylphenyl)amino]quinolin-4-yl}cyclopentanecarboxamide], for which the activity at 10 µM at human A3ARs [1] stood at 165%. On human A3ARs [2], the inhibition at 10 µM came to 63%.
In the case of `O=C(Nc1cc(Nc2ccc3c(c2)CCC3)nc2ccccc12)C1CCCC1` [Compound 20, N-[2-(2,3-dihydro-1H-inden-5-ylamino)quinolin-4-yl]cyclopentanecarboxamide], the activity at 10 µM on human A3ARs [1] amounted to 147%. For the same compound, the inhibition at 10 µM on human A3ARs [2] was determined as 62%.
With `COc1ccc(Nc2cc(NC(=O)C3CCCC3)c3ccccc3n2)cc1` [Compound 21, N-{2-[(4-methoxyphenyl)amino]quinolin-4-yl}cyclopentanecarboxamide], the activity at 10 µM at human A3ARs [1] is 134%. Also, on human A3ARs [2], the inhibition at 10 µM is 35%.
The like results for `O=C(Nc1cc(NC2CCCC2)nc2ccccc12)C1CCCC1` [Compound 23, N-[2-(cyclopentylamino)quinolin-4-yl]cyclopentanecarboxamide] were, in that order, 114% and 14%.
For the compound `O=C(Nc1cc(Nc2ccc3cn[nH]c3c2)nc2ccccc12)C1CCCC1` [Compound 24, N-[2-(1H-indazol-6-ylamino)quinolin-4-yl]cyclopentanecarboxamide], the activity at 10 µM on human A3ARs [1] is 102%. Further, the inhibition at 10 µM on human A3ARs [2] is 90%.
For `O=C(Nc1cc(Nc2ccc(Cl)c(Cl)c2)nc2ccccc12)C1CCCCC1` [Compound 26, N-{2-[(3,4-dichlorophenyl)amino]quinolin-4-yl}cyclohexanecarboxamide], at human A3ARs [1], the activity at 10 µM is not above 249%.
For `Cc1ccc(Nc2cc(NC(=O)C3CCCCC3)c3ccccc3n2)cc1` [Compound 27, N-{2-[(4-methylphenyl)amino]quinolin-4-yl}cyclohexanecarboxamide], the activity at 10 µM on human A3ARs [1] is 220%. Further, the inhibition at 10 µM on human A3ARs [2] turned out to be 64%.
As to `O=C(Nc1cc(Nc2ccc3c(c2)CCC3)nc2ccccc12)C1CCCCC1` [Compound 28, N-[2-(2,3-dihydro-1H-inden-5-ylamino)quinolin-4-yl]cyclohexanecarboxamide], the inhibition at 10 µM at human A3ARs [2] was less than 50%.
Take `O=C(Nc1cc(Nc2ccccc2)nc2ccccc12)c1ccccc1` [Compound 29, N-(2-anilinoquinolin-4-yl)benzamide]: at human A3ARs [1], the activity at 10 µM was found to be 100%. The inhibition at 10 µM at human A3ARs [2] amounted to 76%.
In the case of `O=C(Nc1cc(Nc2ccc(Cl)c(Cl)c2)nc2ccccc12)c1ccccc1` [Compound 30, N-{2-[(3,4-dichloro-phenyl)amino]quinolin-4-yl}benzamide], the activity at 10 µM at human A3ARs [1] was found to be 112%. Also, the inhibition at 10 µM on human A3ARs [2] was determined as 37%.
Taken in the same sequence, the figures for `O=C(Nc1cc(Nc2ccccc2)nc2ccccc12)c1ccco1` [Compound 31, N-(2-anilinoquinolin-4-yl)-2-furamide] were 100% and 60%.
Regarding `O=C(Nc1cc(Nc2ccc(Cl)c(Cl)c2)nc2ccccc12)c1ccco1` [Compound 32, N-{2-[(3,4-dichlorophenyl)amino]quinolin-4-yl}-2-furamide], the activity at 10 µM at human A3ARs [1] turned out to be 96%. For the same compound, the inhibition at 10 µM on human A3ARs [2] was 13%.
In the case of `O=C(Nc1cc(Nc2ccccc2)nc2ccccc12)C1CCC1` [Compound 33, N-(2-anilinoquinolin-4-yl)cyclobutanecarboxamide], the activity at 10 µM at human A3ARs [1] came to 119%. On human A3ARs [2], the inhibition at 10 µM came out at 66%.
Taken in the same sequence, the figures for `O=C(Nc1cc(Nc2ccc(Cl)c(Cl)c2)nc2ccccc12)C1CCC1` [Compound 34, N-{2-[(3,4-dichlorophenyl)amino]quinolin-4-yl}cyclobutanecarboxamide] were 149% and 51%.

(Values after patent publication US20110144156A1, “A3 ADENOSINE RECEPTOR ALLOSTERIC MODULATORS” (UNIVERSITEIT LEIDEN, priority 2008, published 2011).)
